Where a SMILES comes first, the peptide text is derived from it. [ ]: non-standard residue; d: D form. The star is where a group is joined. dHpg = N[C@@H](C(=O)O)c1ccc(O)cc1; Boc = CC(C)(C)OC(=O)*

For the first assay, the target named is Tissue-type plasminogen activator (Homo sapiens) (UniProt P00750). Description: Inhibitory activity against tissue-type plasminogen activator.
Chain of Tissue-type plasminogen activator (Homo sapiens) (P00750 whole entry, looked up): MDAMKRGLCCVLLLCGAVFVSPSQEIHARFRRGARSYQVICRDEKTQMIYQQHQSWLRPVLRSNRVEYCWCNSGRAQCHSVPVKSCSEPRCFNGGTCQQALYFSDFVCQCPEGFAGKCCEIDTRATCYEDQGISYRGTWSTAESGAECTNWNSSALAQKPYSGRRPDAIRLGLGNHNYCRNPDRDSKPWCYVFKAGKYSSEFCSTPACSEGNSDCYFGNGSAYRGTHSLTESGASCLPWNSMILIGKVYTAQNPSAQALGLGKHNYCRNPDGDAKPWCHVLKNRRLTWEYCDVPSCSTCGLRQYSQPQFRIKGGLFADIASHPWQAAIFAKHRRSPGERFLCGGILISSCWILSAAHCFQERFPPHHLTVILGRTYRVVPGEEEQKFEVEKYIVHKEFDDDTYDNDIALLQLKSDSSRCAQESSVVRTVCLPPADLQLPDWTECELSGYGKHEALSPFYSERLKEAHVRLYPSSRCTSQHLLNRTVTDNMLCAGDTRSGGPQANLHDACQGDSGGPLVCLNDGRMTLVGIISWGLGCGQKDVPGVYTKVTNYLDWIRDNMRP
As to `N=C(N)NCCC[C@@H](C=O)NC(=O)[C@@H]1CCCN1C(=O)C1CCc2ccccc2N1` (stereo not given in full) [1-(1,2,3,4-Tetrahydro-quinoline-2-carbonyl)-pyrrolidine-2-carboxylic acid (1-formyl-4-guanidino-butyl)-amide], the IC50 worked out at 660 µM.

Regarding `CC(C)(C)OC(=O)N[C@@H](C(=O)N1CCC[C@H]1C(=O)N[C@H](C=O)CCCN=C(N)N)c1ccc(O)cc1` [[2-[2-(1-Formyl-4-guanidino-butylcarbamoyl)-pyrrolidin-1-yl]-1-(4-hydroxy-phenyl)-2-oxo-ethyl]-carbamic acid tert-butyl ester] (Boc-[dHpg]-Pro-Arg-aldehyde), inhibition was half-maximal at 16 µM (IC50).

Another assay has the same target. Description: Compound was tested in vitro for inhibitory activity against t-PA (tissue plasminogen activator).
Regarding `CO[C@H](C(=O)N1CCC[C@H]1C(=O)NC(C=O)CCCNC(=N)N)c1ccccc1` (stereo not given in full) [1-(2-Methoxy-2-phenyl-acetyl)-pyrrolidine-2-carboxylic acid (1-formyl-4-guanidino-butyl)-amide], the IC50 worked out at 860 µM.

For `CN[C@@H](C(=O)N1CCC[C@H]1C(=O)N[C@H](C=O)CCCNC(=N)N)c1ccccc1` [(S)-1-((R)-2-Methylamino-2-phenyl-acetyl)-pyrrolidine-2-carboxylic acid ((S)-1-formyl-4-guanidino-butyl)-amide], the IC50 came to 42 µM.

Compound `CC(C)(C)OC(=O)NC(C(=O)N1CCC[C@H]1C(=O)NC(C=O)CCCNC(=N)N)c1cccc(C(F)(F)F)c1` (stereo not given in full) [[2-[2-(1-Formyl-4-guanidino-butylcarbamoyl)-pyrrolidin-1-yl]-2-oxo-1-(3-trifluoromethyl-phenyl)-ethyl]-carbamic acid tert-butyl ester] came in with a 50% inhibitory concentration (IC50) of 15 µM.

`CC(C)(C)OC(=O)NC(C(=O)N1CCC[C@H]1C(=O)NC(C=O)CCCNC(=N)N)c1ccc(Cl)c(Cl)c1` (stereo not given in full) [{1-(3,4-Dichloro-phenyl)-2-[2-(1-formyl-4-guanidino-butylcarbamoyl)-pyrrolidin-1-yl]-2-oxo-ethyl}-carbamic acid tert-butyl ester] displayed an IC50 of 31 µM.

For `CC(C)(C)OC(=O)N[C@@H](C(=O)N1CCC[C@H]1C(=O)N[C@H](C=O)CCCN=C(N)N)c1ccc(F)cc1` [{1-(4-Fluoro-phenyl)-2-[2-(1-formyl-4-guanidino-butylcarbamoyl)-pyrrolidin-1-yl]-2-oxo-ethyl}-carbamic acid tert-butyl ester], half-maximal inhibition (IC50) was put at 18 µM.

For the compound `CC(C)(C)OC(=O)N[C@H](C(=O)N1CCC[C@H]1C(=O)N[C@H](C=O)CCCN=C(N)N)c1ccc(F)cc1` [{1-(4-Fluoro-phenyl)-2-[2-(1-formyl-4-guanidino-butylcarbamoyl)-pyrrolidin-1-yl]-2-oxo-ethyl}-carbamic acid tert-butyl ester], inhibition was half-maximal at 91 µM (IC50).

In turn, `CC(C)(C)OC(=O)N[C@@H](C(=O)N1CCC[C@H]1C(=O)NC(C=O)CCCNC(=N)N)c1cccc2ccccc12` (stereo not given in full) [{2-[2-(1-Formyl-4-guanidino-butylcarbamoyl)-pyrrolidin-1-yl]-1-naphthalen-1-yl-2-oxo-ethyl}-carbamic acid tert-butyl ester] gave an IC50 of 20 µM.

Regarding `CC(C)(C)OC(=O)N[C@@H](C(=O)N1CCC[C@H]1C(=O)NC(C=O)CCCNC(=N)N)c1ccc2ccccc2c1` (stereo not given in full) [{2-[2-(1-Formyl-4-guanidino-butylcarbamoyl)-pyrrolidin-1-yl]-1-naphthalen-2-yl-2-oxo-ethyl}-carbamic acid tert-butyl ester], the IC50 was 12 µM.

The term IC50 denotes the concentration at which inhibition is half-maximal.

These data come from BindingDB's records for doi:10.1021/jm00055a002 (Eli Lilly, 1993).
